Data as given in PMC3192407, “Both Basic and Acidic Amino Acid Residues of IpTxa Are Involved in Triggering Substate of RyR1” (Journal of Biomedicine and Biotechnology, 2011).
Bridge positions count the residues as written; N and C are the ends. Peptide text beside a SMILES is read from it.

Key:
[1] = target: T1, rabbit skeletal RyR1 (native RyR1 in HSR) (Oryctolagus cuniculus, UniProt P11716); test: Planar lipid bilayer single-channel recording, native RyR1 in HSR; type: biochemical; details: for EC50 of Psubstate compared with wild type (in words): native RyR1 (Figure 2(b)), Figure 5(b), purified RyR1, also cited in sentence; for EC50: native RyR1 in SR, toxin cis, 6-100 nM, -30 mV, [Ca^2+]free 10 μM, pH 7.2, Hill fit, means ± SE of 3–9 experiments, read-out: EC50 for Psubstate
T1 construct: tested using native RyR1 in rabbit skeletal HSR; from tissue; host or cells: rabbit fast-twitch back and leg muscles (heavy SR vesicles)
T1 sequence (P11716 whole entry): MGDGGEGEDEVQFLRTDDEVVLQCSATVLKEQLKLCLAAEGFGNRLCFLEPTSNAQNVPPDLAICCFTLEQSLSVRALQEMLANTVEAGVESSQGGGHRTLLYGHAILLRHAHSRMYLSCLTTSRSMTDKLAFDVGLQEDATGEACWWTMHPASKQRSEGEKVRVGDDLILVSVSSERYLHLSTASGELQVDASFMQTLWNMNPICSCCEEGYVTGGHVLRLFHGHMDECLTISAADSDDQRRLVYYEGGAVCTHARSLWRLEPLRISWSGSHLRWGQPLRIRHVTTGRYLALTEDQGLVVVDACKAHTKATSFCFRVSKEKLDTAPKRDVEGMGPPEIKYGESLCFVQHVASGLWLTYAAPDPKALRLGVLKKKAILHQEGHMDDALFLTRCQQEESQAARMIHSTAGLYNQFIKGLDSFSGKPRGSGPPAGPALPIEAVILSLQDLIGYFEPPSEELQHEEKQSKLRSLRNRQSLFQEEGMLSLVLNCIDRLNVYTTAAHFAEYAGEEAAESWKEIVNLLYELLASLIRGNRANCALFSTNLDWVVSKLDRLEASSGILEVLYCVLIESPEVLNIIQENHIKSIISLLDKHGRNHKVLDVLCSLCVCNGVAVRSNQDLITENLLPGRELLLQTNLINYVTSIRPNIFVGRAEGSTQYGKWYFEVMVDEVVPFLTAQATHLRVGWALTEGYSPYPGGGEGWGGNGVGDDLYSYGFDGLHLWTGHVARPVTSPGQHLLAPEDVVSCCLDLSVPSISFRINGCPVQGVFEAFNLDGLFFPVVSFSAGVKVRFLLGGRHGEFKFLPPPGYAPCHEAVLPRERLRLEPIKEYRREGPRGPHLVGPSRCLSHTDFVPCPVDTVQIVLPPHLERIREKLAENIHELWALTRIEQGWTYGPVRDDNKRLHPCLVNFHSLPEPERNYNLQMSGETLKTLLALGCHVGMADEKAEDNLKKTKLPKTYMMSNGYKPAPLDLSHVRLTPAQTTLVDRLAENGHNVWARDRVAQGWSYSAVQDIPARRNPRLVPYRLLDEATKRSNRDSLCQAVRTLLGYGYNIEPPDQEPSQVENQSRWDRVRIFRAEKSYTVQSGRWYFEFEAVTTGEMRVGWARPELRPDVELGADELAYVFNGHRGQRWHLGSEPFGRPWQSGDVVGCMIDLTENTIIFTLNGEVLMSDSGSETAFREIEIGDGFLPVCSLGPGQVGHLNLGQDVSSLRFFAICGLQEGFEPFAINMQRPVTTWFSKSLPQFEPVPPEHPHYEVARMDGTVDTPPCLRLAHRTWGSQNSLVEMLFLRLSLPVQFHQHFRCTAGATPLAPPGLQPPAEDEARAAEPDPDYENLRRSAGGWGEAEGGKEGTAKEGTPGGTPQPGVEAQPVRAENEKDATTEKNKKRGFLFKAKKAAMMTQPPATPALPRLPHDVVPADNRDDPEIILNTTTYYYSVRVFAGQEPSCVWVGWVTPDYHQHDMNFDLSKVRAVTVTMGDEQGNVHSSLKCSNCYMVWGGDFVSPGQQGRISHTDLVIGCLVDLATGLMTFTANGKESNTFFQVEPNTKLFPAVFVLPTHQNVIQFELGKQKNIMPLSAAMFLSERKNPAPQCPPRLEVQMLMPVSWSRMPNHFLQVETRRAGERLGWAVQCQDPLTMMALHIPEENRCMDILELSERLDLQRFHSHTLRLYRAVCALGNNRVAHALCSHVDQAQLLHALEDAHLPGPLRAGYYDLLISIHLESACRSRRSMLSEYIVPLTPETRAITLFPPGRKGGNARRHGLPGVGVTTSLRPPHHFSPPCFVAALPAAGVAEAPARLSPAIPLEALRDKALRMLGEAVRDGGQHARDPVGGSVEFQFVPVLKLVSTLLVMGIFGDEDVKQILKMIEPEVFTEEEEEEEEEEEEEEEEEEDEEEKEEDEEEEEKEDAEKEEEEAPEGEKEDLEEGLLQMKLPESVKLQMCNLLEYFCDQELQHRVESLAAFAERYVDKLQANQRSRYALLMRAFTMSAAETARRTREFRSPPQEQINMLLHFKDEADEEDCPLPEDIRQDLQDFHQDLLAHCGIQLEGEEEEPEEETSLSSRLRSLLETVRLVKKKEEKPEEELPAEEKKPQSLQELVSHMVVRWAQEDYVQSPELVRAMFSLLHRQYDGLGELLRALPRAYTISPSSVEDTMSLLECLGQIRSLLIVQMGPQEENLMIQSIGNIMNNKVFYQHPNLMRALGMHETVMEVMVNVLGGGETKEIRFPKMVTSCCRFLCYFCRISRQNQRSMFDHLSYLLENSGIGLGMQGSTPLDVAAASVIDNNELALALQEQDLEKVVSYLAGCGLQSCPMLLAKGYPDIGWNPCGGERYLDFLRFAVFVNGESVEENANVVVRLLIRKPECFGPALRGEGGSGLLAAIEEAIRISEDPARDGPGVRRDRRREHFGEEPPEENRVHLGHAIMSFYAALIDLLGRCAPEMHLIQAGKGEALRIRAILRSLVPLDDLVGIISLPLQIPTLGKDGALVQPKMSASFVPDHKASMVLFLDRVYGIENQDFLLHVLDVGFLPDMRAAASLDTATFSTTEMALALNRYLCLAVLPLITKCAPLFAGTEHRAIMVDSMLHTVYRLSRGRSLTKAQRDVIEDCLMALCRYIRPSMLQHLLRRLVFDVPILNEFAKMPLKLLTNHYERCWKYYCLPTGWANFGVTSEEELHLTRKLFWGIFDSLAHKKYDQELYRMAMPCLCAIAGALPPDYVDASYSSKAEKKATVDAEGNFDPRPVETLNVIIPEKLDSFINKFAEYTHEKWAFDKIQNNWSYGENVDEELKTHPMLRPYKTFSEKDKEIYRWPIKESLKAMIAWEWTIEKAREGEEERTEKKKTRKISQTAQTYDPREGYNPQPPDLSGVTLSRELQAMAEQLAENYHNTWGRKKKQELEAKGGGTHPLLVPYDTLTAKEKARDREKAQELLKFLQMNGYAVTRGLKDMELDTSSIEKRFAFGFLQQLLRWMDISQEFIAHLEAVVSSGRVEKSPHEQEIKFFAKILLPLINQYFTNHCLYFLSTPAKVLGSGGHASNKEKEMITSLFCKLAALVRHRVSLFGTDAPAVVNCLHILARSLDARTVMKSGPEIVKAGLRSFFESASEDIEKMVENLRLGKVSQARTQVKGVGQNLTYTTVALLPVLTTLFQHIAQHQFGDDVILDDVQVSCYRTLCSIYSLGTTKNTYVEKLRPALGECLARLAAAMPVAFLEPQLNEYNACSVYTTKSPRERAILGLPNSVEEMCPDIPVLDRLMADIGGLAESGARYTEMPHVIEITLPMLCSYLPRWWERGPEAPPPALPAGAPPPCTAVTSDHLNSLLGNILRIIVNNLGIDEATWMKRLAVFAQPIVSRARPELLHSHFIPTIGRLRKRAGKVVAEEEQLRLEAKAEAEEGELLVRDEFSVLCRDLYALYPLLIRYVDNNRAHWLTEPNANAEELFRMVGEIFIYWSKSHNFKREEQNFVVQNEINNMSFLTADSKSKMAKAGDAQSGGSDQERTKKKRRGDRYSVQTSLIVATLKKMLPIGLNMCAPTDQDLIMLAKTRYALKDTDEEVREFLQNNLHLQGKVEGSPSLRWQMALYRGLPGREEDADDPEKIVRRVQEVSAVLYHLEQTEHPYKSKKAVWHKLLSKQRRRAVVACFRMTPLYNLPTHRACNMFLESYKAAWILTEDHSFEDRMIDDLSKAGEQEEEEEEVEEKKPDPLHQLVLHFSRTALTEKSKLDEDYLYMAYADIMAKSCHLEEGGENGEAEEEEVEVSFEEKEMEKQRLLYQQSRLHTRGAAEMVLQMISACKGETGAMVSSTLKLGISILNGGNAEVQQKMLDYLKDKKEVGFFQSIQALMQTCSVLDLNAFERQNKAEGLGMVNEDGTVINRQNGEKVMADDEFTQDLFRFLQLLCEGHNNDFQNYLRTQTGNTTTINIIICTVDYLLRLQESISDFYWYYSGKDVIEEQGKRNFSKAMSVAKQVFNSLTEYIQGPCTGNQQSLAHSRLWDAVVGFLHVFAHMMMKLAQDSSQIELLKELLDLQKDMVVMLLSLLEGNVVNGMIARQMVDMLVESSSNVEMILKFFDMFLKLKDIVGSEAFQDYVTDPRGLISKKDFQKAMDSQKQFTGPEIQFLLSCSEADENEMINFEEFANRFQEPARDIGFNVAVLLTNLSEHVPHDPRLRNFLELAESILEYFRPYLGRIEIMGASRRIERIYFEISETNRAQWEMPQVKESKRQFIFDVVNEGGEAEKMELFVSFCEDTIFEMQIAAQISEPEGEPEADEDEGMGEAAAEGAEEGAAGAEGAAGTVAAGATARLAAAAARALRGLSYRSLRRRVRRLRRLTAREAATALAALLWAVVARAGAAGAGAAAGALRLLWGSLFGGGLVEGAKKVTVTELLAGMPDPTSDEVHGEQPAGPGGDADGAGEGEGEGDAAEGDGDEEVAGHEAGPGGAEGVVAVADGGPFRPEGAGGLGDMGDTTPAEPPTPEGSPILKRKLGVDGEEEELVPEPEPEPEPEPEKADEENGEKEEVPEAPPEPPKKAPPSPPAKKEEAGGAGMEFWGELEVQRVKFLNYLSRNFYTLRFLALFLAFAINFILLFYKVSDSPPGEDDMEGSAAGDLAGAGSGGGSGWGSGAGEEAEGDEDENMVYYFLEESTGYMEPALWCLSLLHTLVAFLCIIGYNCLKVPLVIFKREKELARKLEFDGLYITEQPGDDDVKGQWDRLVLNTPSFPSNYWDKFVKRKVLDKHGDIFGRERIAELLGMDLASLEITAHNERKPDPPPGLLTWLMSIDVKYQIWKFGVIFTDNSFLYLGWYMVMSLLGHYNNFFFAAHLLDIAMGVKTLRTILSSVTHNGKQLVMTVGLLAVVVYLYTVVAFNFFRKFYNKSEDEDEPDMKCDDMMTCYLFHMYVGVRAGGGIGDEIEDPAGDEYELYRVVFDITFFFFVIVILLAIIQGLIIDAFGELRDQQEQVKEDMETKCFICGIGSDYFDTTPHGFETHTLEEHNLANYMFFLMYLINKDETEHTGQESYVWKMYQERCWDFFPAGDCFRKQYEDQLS
Protocol: A heavy fraction of fragmented SR vesicles (HSR) containing junctional SR was prepared from rabbit fast-twitch back and leg muscles as described previously.
(§1) Single-channel recordings of rabbit skeletal RyR1 incorporated into planar lipid bilayers were carried out as described previously. Lipid bilayers, consisting of brain tissue phosphatidylethanolamine and phosphatidylserine (1 : 1) in decane (20 mg/mL) were formed across a hole of approximately 200 μm diameter. Thinning of the bilayer was monitored by bilayer capacitance. The basic composition of the cis/trans solution consisted of 300 mM cesium methanesulfonate, 10 mM Tris/Hepes (pH 7.2), 2 mM EGTA, and 1.998 mM CaCl2 ([Ca^2+]free = 10 μM). [Ca^2+]free was calculated using the “Chelator” program (Theo Schoenmaker). Cs^+ was selected as the charge carrier to ensure precise control of free [Ca^2+], to increase the channel conductance, and to avoid any contribution from potassium channels present in the SR membrane. Chloride channels were inhibited by using the impermeant anion methanesulfonate. Incorporation of ion channels was carried out as described by Miller and Racker and confirmed by recording the characteristically high single-channel conductance of RyRs. The trans side was maintained at ground and the cis side was clamped at −30 mV relative to the ground. After addition of the IpTxa to the cis chamber, the single channel data were collected at −30 mV for 2–5 min. […] Recordings were filtered with an 8-pole low-pass Bessel filter at 1 kHz and digitalized through a Digidata 1200 series interface (Axon Instruments). Data acquisition and analysis were done with the Axon Instruments software, pClamp v7.0.
(§2) Data were analyzed using the Hill equation described previously:
(§3) (1) Psubstate=(Psubstate, max )/[1+(EC50/[IpTxa])^nH] orPo=(Po, max )/[1+(EC50/[IpTxa])^nH], where (Po, max ) is the Po observed at saturating concentrations of IpTxa, EC50 is the IpTxa concentration for which 50% of Po, max is obtained and nH is the Hill coefficient. Also, Psubstate, max is the Psubstate observed at saturating concentrations of IpTxa, EC50 is the IpTxa concentration for which 50% of Psubstate, max is obtained, and nH is the Hill coefficient. The probability of full open state of the channel (Po) was defined as the ratio of the time spent in the open state to the total time exclusive of time spent in the substate. The probability to obtain substate (Psubstate) was calculated as the time spent in the substate divided by a given total recording time. The durations of the substate were obtained by manual positioning of the cursors and constructing all point histograms. Mean duration of substate was measured by total substate time divided by total substate frequencies.
(§4) Results are given as means ± SE. Significant differences were analyzed using Student's t-test. Differences were considered to be significant when P < 0.05. The fitting of the data to the graphs were carried out using the software, Origin v7.
To examine how IpTxa modifies RyR1 activity, RyR1 in HSR incorporated in planar lipid bilayers was tested in the presence or absence of synthetic wild-type IpTxa. The chamber solutions for both cis (cytosolic) and trans (luminal) sides included 300 mM cesium methanesulfonate and 10 mM Tris-Hepes (pH 7.2). 10 μM free Ca^2+ was added to the cis side to activate the incorporated RyR1. After an addition of IpTxa to the cis chamber, the single channel gating properties were recorded at a holding potential of −30 mV for over 2 min at each toxin concentration. […] To examine the effects of IpTxa on full open state, we calculated the probability to obtain the full open state (Po) as the time spent in the open state divided by the total time exclusive of the time spent in the substate. The time for recorded Po was in the range of 30 s–2 min. […] The steady-state Po was 0.18 ± 0.02 at 10 μM Ca^2+. […]

purified rabbit RyR1 = target: T2, purified rabbit RyR1 (Oryctolagus cuniculus, UniProt P11716); test: Planar lipid bilayer single-channel recording, purified RyR1; type: biochemical; details: for EC50: purified RyR1, toxin cis, 6-100 nM, -30 mV, 10 μM Ca^2+, Hill fit, means ± SE of 4–10 experiments, read-out: EC50 for Psubstate; for EC50 for Psubstate compared with wild type (in words): purified RyR1, 6-100 nM
T2 construct: we added IpTxa to purified RyR1 incorporated into planar lipid bilayers; from tissue; host or cells: rabbit skeletal muscle (inferred; purified from HSR)
T2 sequence (P11716 whole entry): as above
Protocol: as §1, §2, §3, §4
To determine whether the activation of native RyR1 in SR by IpTxa was due to a direct activation of RyR1 or due to an indirect activation through other proteins associated to RyR1, we added IpTxa to purified RyR1 incorporated into planar lipid bilayers (Figure 3(a)). […] Purity of RyR1 at the final purification step was verified by Coomassie blue staining (Supplementary Figure 2).
Figure 3 Effects of IpTxa on purified rabbit RyR1 incorporated in planar lipid bilayers. (a) Single channel activity of purified RyR1 incorporated in planar lipid bilayers at 10 μM Ca^2+ with or without IpTxa (6–100 nM) was recorded. Single channel currents are shown as downward deflections from the closed level (indicated by c). The holding potential was −30 mV. (b) The plot of Po of purified RyR1 versus various concentrations of IpTxa is shown. (c) The plot of Psubstate of purified RyR1 versus various concentrations of IpTxa is shown. The results are shown as the means ± SE for 7 experiments. […]

## CC(C)C[C@@H]1NC(=O)[C@H](Cc2c[nH]cn2)NC(=O)[C@@H]2CCCN2C(=O)[C@H](CC(C)C)NC(=O)[C@@H](NC(=O)[C@H](CC(=O)O)NC(=O)CN)CSSC[C@@H]2NC(=O)[C@@H]3CSSC[C@@H](C(=O)N[C@@H](CCCNC(=N)N)C(=O)O)NC(=O)[C@H](CCCNC(=N)N)NC(=O)[C@H](CCCCN)NC(=O)[C@H](CCC(=O)O)NC(=O)[C@H](C)NC(=O)[C@H](CC(N)=O)NC(=O)[C@H]([C@@H](C)O)NC(=O)CNC(=O)[C@H](CCCNC(=N)N)NC(=O)[C@H](CCCNC(=N)N)NC(=O)[C@H](CCCCN)NC(=O)[C@H](CSSC[C@H](NC(=O)[C@H](CCCNC(=N)N)NC(=O)[C@H](C)NC1=O)C(=O)N[C@@H](CCCCN)C(=O)N[C@@H](C)C(=O)N[C@@H](CC(=O)O)C(=O)N[C@@H](CC(N)=O)C(=O)N[C@@H](CC(=O)O)C(=O)N3)NC(=O)[C@H](CCCCN)NC(=O)[C@H](CCCCN)NC(=O)CNC2=O [K8A] (H-GDCLPHLARCKADNDCCGKKCKRRGTNAEKRCR-OH; disulfide 3-17, 10-21, 16-32)
[1]
  EC50 of Psubstate compared with wild type (in words): dramatically decreased EC50 of Psubstate
  EC50: 5.7 ± 2.86 nM
Purified rabbit RyR1
  EC50: 5.29 ± 4.84 nM

## CC(C)C[C@@H]1NC(=O)[C@H](Cc2c[nH]cn2)NC(=O)[C@@H]2CCCN2C(=O)[C@H](CC(C)C)NC(=O)[C@@H](NC(=O)[C@H](CC(=O)O)NC(=O)CN)CSSC[C@@H]2NC(=O)[C@@H]3CSSC[C@@H](C(=O)N[C@@H](CCCNC(=N)N)C(=O)O)NC(=O)[C@H](CCCNC(=N)N)NC(=O)[C@H](C)NC(=O)[C@H](CCC(=O)O)NC(=O)[C@H](C)NC(=O)[C@H](CC(N)=O)NC(=O)[C@H]([C@@H](C)O)NC(=O)CNC(=O)[C@H](CCCNC(=N)N)NC(=O)[C@H](CCCNC(=N)N)NC(=O)[C@H](CCCCN)NC(=O)[C@H](CSSC[C@H](NC(=O)[C@H](CCCNC(=N)N)NC(=O)[C@H](CCCCN)NC1=O)C(=O)N[C@@H](CCCCN)C(=O)N[C@@H](C)C(=O)N[C@@H](CC(=O)O)C(=O)N[C@@H](CC(N)=O)C(=O)N[C@@H](CC(=O)O)C(=O)N3)NC(=O)[C@H](CCCCN)NC(=O)[C@H](CCCCN)NC(=O)CNC2=O [K30A] (H-GDCLPHLKRCKADNDCCGKKCKRRGTNAEARCR-OH; disulfide 3-17, 10-21, 16-32)
[1]
  EC50: 16.7 ± 2.86 nM
Purified rabbit RyR1
  EC50 for Psubstate compared with wild type (in words): without a significant change of EC50
  EC50: 15.7 ± 5.99 nM

## CC(C)C[C@@H]1NC(=O)[C@H](Cc2c[nH]cn2)NC(=O)[C@@H]2CCCN2C(=O)[C@H](CC(C)C)NC(=O)[C@@H](NC(=O)[C@H](CC(=O)O)NC(=O)CN)CSSC[C@@H]2NC(=O)[C@@H]3CSSC[C@@H](C(=O)N[C@@H](CCCNC(=N)N)C(=O)O)NC(=O)[C@H](C)NC(=O)[C@H](CCCCN)NC(=O)[C@H](CCC(=O)O)NC(=O)[C@H](C)NC(=O)[C@H](CC(N)=O)NC(=O)[C@H]([C@@H](C)O)NC(=O)CNC(=O)[C@H](CCCNC(=N)N)NC(=O)[C@H](CCCNC(=N)N)NC(=O)[C@H](CCCCN)NC(=O)[C@H](CSSC[C@H](NC(=O)[C@H](CCCNC(=N)N)NC(=O)[C@H](CCCCN)NC1=O)C(=O)N[C@@H](CCCCN)C(=O)N[C@@H](C)C(=O)N[C@@H](CC(=O)O)C(=O)N[C@@H](CC(N)=O)C(=O)N[C@@H](CC(=O)O)C(=O)N3)NC(=O)[C@H](CCCCN)NC(=O)[C@H](CCCCN)NC(=O)CNC2=O [R31A] (H-GDCLPHLKRCKADNDCCGKKCKRRGTNAEKACR-OH; disulfide 3-17, 10-21, 16-32)
[1]
  EC50: 19.2 ± 4.65 nM
Purified rabbit RyR1
  EC50 for Psubstate compared with wild type (in words): without a significant change of EC50
  EC50: 18.2 ± 1.65 nM

## CC(C)C[C@@H]1NC(=O)[C@H](Cc2c[nH]cn2)NC(=O)[C@@H]2CCCN2C(=O)[C@H](CC(C)C)NC(=O)[C@@H](NC(=O)[C@H](CC(=O)O)NC(=O)CN)CSSC[C@@H]2NC(=O)[C@@H]3CSSC[C@@H](C(=O)N[C@@H](C)C(=O)O)NC(=O)[C@H](CCCNC(=N)N)NC(=O)[C@H](CCCCN)NC(=O)[C@H](CCC(=O)O)NC(=O)[C@H](C)NC(=O)[C@H](CC(N)=O)NC(=O)[C@H]([C@@H](C)O)NC(=O)CNC(=O)[C@H](CCCNC(=N)N)NC(=O)[C@H](CCCNC(=N)N)NC(=O)[C@H](CCCCN)NC(=O)[C@H](CSSC[C@H](NC(=O)[C@H](CCCNC(=N)N)NC(=O)[C@H](CCCCN)NC1=O)C(=O)N[C@@H](CCCCN)C(=O)N[C@@H](C)C(=O)N[C@@H](CC(=O)O)C(=O)N[C@@H](CC(N)=O)C(=O)N[C@@H](CC(=O)O)C(=O)N3)NC(=O)[C@H](CCCCN)NC(=O)[C@H](CCCCN)NC(=O)CNC2=O [R33A] (H-GDCLPHLKRCKADNDCCGKKCKRRGTNAEKRCA-OH; disulfide 3-17, 10-21, 16-32)
[1]
  EC50: 16 ± 5.65 nM
Purified rabbit RyR1
  EC50 for Psubstate compared with wild type (in words): without a significant change of EC50
  EC50: 19.3 ± 1.05 nM

## CC(C)C[C@@H]1NC(=O)[C@H](Cc2c[nH]cn2)NC(=O)[C@@H]2CCCN2C(=O)[C@H](CC(C)C)NC(=O)[C@@H](NC(=O)[C@H](CC(=O)O)NC(=O)CN)CSSC[C@@H]2NC(=O)[C@@H]3CSSC[C@@H](C(=O)N[C@@H](CCCNC(=N)N)C(=O)O)NC(=O)[C@H](CCCNC(=N)N)NC(=O)[C@H](CCCCN)NC(=O)[C@H](CCC(=O)O)NC(=O)[C@H](C)NC(=O)[C@H](CC(N)=O)NC(=O)[C@H](C)NC(=O)CNC(=O)[C@H](CCCNC(=N)N)NC(=O)[C@H](CCCNC(=N)N)NC(=O)[C@H](CCCCN)NC(=O)[C@H](CSSC[C@H](NC(=O)[C@H](CCCNC(=N)N)NC(=O)[C@H](CCCCN)NC1=O)C(=O)N[C@@H](CCCCN)C(=O)N[C@@H](C)C(=O)N[C@@H](CC(=O)O)C(=O)N[C@@H](CC(N)=O)C(=O)N[C@@H](CC(=O)O)C(=O)N3)NC(=O)[C@H](CCCCN)NC(=O)[C@H](CCCCN)NC(=O)CNC2=O [T26A] (H-GDCLPHLKRCKADNDCCGKKCKRRGANAEKRCR-OH; disulfide 3-17, 10-21, 16-32)
[1]
  EC50 of Psubstate compared with wild type (in words): dramatically decreased EC50 of Psubstate
  EC50: 9.98 ± 1.92 nM
